In patent publication US10266520B2, “Bisamidinium-based inhibitors for the treatment of myotonic dystrophy” (The Board of Trustees of the University of Illinois, priority 2014, dated 2019):

Experiments:
[1] = system: insulin receptor (IR) pre-mRNA splicing; conditions: DM1 model cells; cited from earlier work
MBNL1-(CUG)12 complex = conditions: earlier work; read-out: KI, inhibition of MBNL1-(CUG)12 complex; cited from earlier work
[2] = earlier work; cited from earlier work
(CUG)12 = experiment: Isothermal titration calorimetry (ITC) binding to (CUG)12; conditions: 25° C., read-out: KD, binding affinity toward (CUG)12
Description: The alkyne and azide moieties were chosen because of their small size, excellent stability, and ultimate bioorthogonality. […] This finding enables the rapid development of a wide range of functional derivatives of ligand 1a using the [3+2] alkyne-azide cycloaddition (‘click reaction’) of 1b and 1c.
The ligand stock solution (10 mM in water). MOPS buffer (100 mM; pH 7.0±0.2), and NaCl (5000 mM) were prepared. The ligand solution (1 mL) contained of 0.5 mM of ligand, 20 mM of MOPS buffer, and 150 mM of NaCl. The RNA solution (2 mL) contained 0.02 mM of RNA, 20 mM of MOPS buffer, and 150 mM of NaCl. The resulting RNA solution was heated in a water bath at 90° C. for 5 min, then allowed to cool to room temperature for 2 h.
ITC measurements were performed at 25° C. on a MicroCal VP-ITC calorimeter (Northampton, Mass.). A typical experiment consisted of titrating 10 μL of a ligand solution (500 μM) from a 250 μL syringe (stirred at 300 rpm) into a sample cell containing 1.42 mL of a RNA solution (10 μM) with total 28 injections. The initial delay prior to the first injection was 60 s. The duration of each injection was 24 s and the delay between injections was 300 s. […] Binding parameters such as the dissociation constant (KD), enthalpy change (ΔH), and entropy change (ΔS) were determined by fitting the experimental binding isotherms with various model. […]

Question: What does the source list for `N=C(NCCCCNc1nc(N)nc(N)n1)c1ccc(C(=N)NCCCCNc2nc(N)nc(N)n2)cc1` [Compound 1a]?
Answer: mis-splicing of cTNT and IR pre-mRNA (earlier work) [1]: partially rescuing the mis-splicing; Ki (MBNL1-(CUG)12 complex): 8 µM; water solubility [2]: excellent water solubility; Kd ((CUG)12): 8 µM
